Read-outs that look alike come from different tables or passages of the source.

The test system of series [1] is Cultures of Dissociated Neonatal Rat Cerebellum. Description: Reversal of NMDA Induced Cell Death in cultures of dissociated neonatal rat cerebellum. In kind it is cell-based. The conditions noted are these: for PERCENT PROTECTION: cell survival minus the NMDA effect (30%); for viability at 0.005 µM: 0.005 μM + NMDA (1 mM, 3 hours). Here is the method:
(§1) The cerebellum was aseptically dissociated from 6 or 7-day old rat pups and placed in a 15 ml sterile plastic conical tube containing 3 ml of Dulbecco's modified Eagle's medium (DMEM) with a high glucose concentration ([…]) and 2 mM (v/v) L-glutamine and an antibiotic antimitotic mixture. The cerebella were then dissociated after 20-25 passages through a sterile 13 gauge, 10 cm long stainless steel needle attached to a 5 ml syringe with an inserted 45 micrometer pore nylon sieve. The dissociated cells were centrifuged at 200 g for 5 minutes.
Cells were plated at a density of 200/mm^2 on poly-L-lysine coated surfaces. […] The plated cells were covered with enriched medium and incubated at 37° C. in an atmosphere of 5% CO2 in air and 97% humidity. […] Each test compound was tested in duplicate. Toxic-dose response was determined for each compound over a range from 0.005-1000 micromole. Four groups were run in each set of experiments;
I. Control, consisting of enriched media alone,
II. N-methyl-D-aspartate (NMDA, 1 mM for 3 hours) as the cytotoxic challenge,
III. Test compound plus NMDA, and
IV. Positive control, spermine, spermidine or putrescine (0.01 micromoles) plus NMDA.
Surviving cells in Culture are measured relative to control (100%) as described above. Percent protection is the Cell Survival for the test compound minus the NMDA effect. […] The Effective Protection was calculated as the percent of the Percent Protection (X) divided by the maximal protection value (e.g. X×100/70).

The subject of series [2] is pyramidal neurons throughout the CA1 layer of the anterior hippocampus. Put plainly: Global Brain Ischemia In Gerbils. In kind it is in vivo, mongolian gerbils. The conditions noted are these: Meriones unguiculatus, Pyramidal neuron, 336 h, read-out: PERCENT PROTECTION
As to the method:
Male mongolian gerbils, aged 2.5-5 months, housed 4-8 in a cage, were supplied freely with food and water and maintained at 24° C. with a 12 hour day/night cycle.
For surgery the animals were anesthetized with halothane (1.5% in 100% O2) and the common carotid arteries exposed bilaterally through a midline ventral neck incision. Each artery was clamped for 5 minutes with aneurysm clips to produce global brain ischemia. The anesthesia was discontinued upon clamping. After 5 minutes the clamps were removed and the wound closed with skin clips.
For treatment, the test compound or vehicle was injected intra-peritoneally(ip) in a volume of 50 microlitres of solvent per 10 g body weight. The first injection was given two minutes after clamp removal, and thereafter daily for the next 2 post-operative days (total of 3 injections).
Seven groups each of 4-8 animals were compared:
I. Control; (sham- or unoperated and saline treated),
II. Vehicle treated, unoperated (when solvent is other than saline),
III. Ischemia--untreated or saline treated),
IV. Ischemia--vehicle treated (when solvent is other than saline),
V. Ischemia--Test compound treated, one sub-group per concentration tested,
VI. Ischemia and pentobarbital (40 mg/kg) as positive control).
Analysis of neuronal damage was performed 14 days post-ischemia by counting pyramidal neurons throughout the CA1 layer of the anterior hippocampus in […] thick (paraffin) coronal brain sections stained with hematoxylin and erosin.
Percent Protection values represent the fraction of hippocampi protected from ischemia in a group of animals treated with the stated dose of compound.

The next series in a line: in vitro. To be noted: rat, cerebellum cell culture. As to the method: as §1, with “minutes. […] Cell viability was determined by the tryptan blue exclusion test.” for “minutes.”
Cells were plated at a density of 200/mm^2 on poly-L-lysine coated surfaces. Poly-L-lysine coated glass coverslips were prepared at least one hour in advance of plating by immersing sterile coverslips in sterile distilled water solution containing 15 microgram/ml poly-L-lysine, and washing in sterile water just prior. to use. […] After three days in culture, the media was replaced with media containing the desired test compound. Each test compound was tested in duplicate. Toxic-dose response was determined for each compound over a range from 0.005-1000 micromole. Four groups were run in each set of experiments;
Nerve cell survival was evaluated by phase contrast microscopy and tryptan blue staining after 24 hours.
Toxic dose-response curves were compiled using the protocol described above.

Series [3] deals with ischemia induced nerve cell death. To be noted: gerbils; Gilad G et al.; cited from earlier work.
The test system of series [4] is voltage-sensitive calcium channel. To be noted: cited from earlier work.
The test system of a further series is NMDA receptor. The conditions noted are these: cited from earlier work.
Setting [5] is: Rattus norvegicus, 24 hours, read-out: SURVIVING CELL IN CULTURE (relative to control, 100%).
Where [6] appears, read: Rattus norvegicus, 0.010 μM + NMDA (1 mM, 3 hours), 24 hours, read-out: SURVIVING CELL IN CULTURE (relative to control, 100%).
The mark [7] stands for this setting: ip, 1.0 mg/kg ip, 3 daily injections, 14 days post-ischemia, fraction of hippocampi protected.
Where [8] appears, read: ip, 10.0 mg/kg ip, 3 daily injections, 14 days post-ischemia, fraction of hippocampi protected.
Setting [9] is: positive control, 0.01 micromoles + NMDA.

By CC50 is commonly meant the concentration at which the toxic effect on the cells reaches its halfway point. Regarding `NCCCNCCCCNCCCNC1CCc2ccccc21` (stereo not drawn) [Compound 2721], the entries for the “PERCENT PROTECTION” value in series [1] (0.005 μM + NMDA) and in series [1] (0.010 μM + NMDA) were -2% and -4%, respectively. Besides, the viability at 0.005 µM in series [1] (setting [5]) is 28%. Further, the viability at 0.01 µM in series [1] (setting [6]) came to 26%. In addition, the responders at 1 mg/kg in series [2] (setting [7]) was determined as 12%. Also, the responders at 10 mg/kg in series [2] (setting [8]) amounted to 67%. Also, the CC50 at 24 h in the series “in vitro” came to 1000 nM.
As for `NCCCCN(CCCN)C1CCc2ccccc21` (stereo not drawn) [Compound 2722, N-(4-amino-n-butyl)-N-(3-amino-n-propyl)-1-aminoindan], the “PERCENT PROTECTION” value in series [1] (0.005 μM + NMDA) is recorded as 85%; in series [1] (0.010 μM + NMDA), 57%. In addition, in series [1] (setting [5]), the viability at 0.005 µM worked out at 115%. Besides, in series [1] (setting [6]), the viability at 0.01 µM was determined as 87%. The responders at 1 mg/kg in series [2] (setting [7]) was 50%. In addition, in series [2] (setting [8]), the responders at 10 mg/kg was determined as 25%. The CC50 at 24 h in the series “in vitro” came out at 20000 nM.
As for `NCCCNCCCCNC1CCc2ccccc21` (stereo not drawn) [Compound 2724], the “PERCENT PROTECTION” value in series [1] (0.005 μM + NMDA) came out at 65%; in series [1] (0.010 μM + NMDA), 57%. For the same compound, in series [1] (setting [5]), the viability at 0.005 µM stood at 95%. Further, the viability at 0.01 µM in series [1] (setting [6]) is 87%. The responders at 1 mg/kg in series [2] (setting [7]) came out at 12%. The responders at 10 mg/kg in series [2] (setting [8]) turned out to be 56%. Further, half-maximal cytotoxicity in the series “in vitro” (CC50 at 24 h) was put at 4000 nM.
As for `NCCCCNCCCNCCCCNC1CCc2ccccc21` (stereo not drawn) [Compound 2725], the figures for the “PERCENT PROTECTION” value in series [1] (0.005 μM + NMDA), in series [1] (0.010 μM + NMDA) and in series [1] (0.100 μM + NMDA) were 42%, 8% and 2%, respectively. Moreover, the viability at 0.005 µM in series [1] (setting [5]) was 72%. In series [1] (setting [6]), the viability at 0.01 µM amounted to 38%. Also, the viability at 0.1 µM in series [1] (Rattus norvegicus, 0.100 μM + NMDA (1 mM, 3 hours), 24 hours, read-out: SURVIVING CELL IN CULTURE (relative to control, 100%)) stood at 32%. In addition, the responders at 1 mg/kg in series [2] (setting [7]) came to 0%. Also, the responders at 10 mg/kg in series [2] (setting [8]) was 25%. Besides, half-maximal cytotoxicity in the series “in vitro” (CC50 at 24 h) was put at 20000 nM.
Take `NCCCCN(CCCCN)[C@@H]1CCc2ccccc21` [Compound 2726, (R)-N,N-di(4-amino-n-butyl)-1-aminoindan]: the “PERCENT PROTECTION” value in series [1] (0.005 μM + NMDA) is 99%; in series [1] (0.010 μM + NMDA), 25%. For the same compound, the viability at 0.005 µM in series [1] (setting [5]) worked out at 129%. Moreover, in series [1] (setting [6]), the viability at 0.01 µM is 55%. Moreover, the responders at 10 mg/kg in series [2] (setting [8]) stood at 50%. The compound also showed a CC50 at 24 h in the series “in vitro” of 1700 nM.
In the case of `NCCCCN(CCCCN)[C@H]1CCc2ccccc21` [Compound 2727, (S)-N,N-di(4-amino-n-butyl)-1-aminoindan], the “PERCENT PROTECTION” value in series [1] (0.005 μM + NMDA) turned out to be 0%; in series [1] (0.010 μM + NMDA) it was 25%. For the same compound, the viability at 0.005 µM in series [1] (setting [5]) came to 30%. For the same compound, the viability at 0.01 µM in series [1] (setting [6]) is 55%. In addition, in series [2] (setting [8]), the responders at 10 mg/kg is 28.5%. The compound further yielded a CC50 at 24 h in the series “in vitro” of 400 nM.
Regarding `NCCCCN(CCCCN)C1CCCc2ccccc21` (stereo not drawn) [Compound 2728, N,N-di(4-amino-n-butyl)-1-amino-1,2,3,4-tetrahydronaphthalene], the “PERCENT PROTECTION” value in series [1] (0.005 μM + NMDA) is listed as -10%; in series [1] (0.010 μM + NMDA), 56%. Moreover, the viability at 0.005 µM in series [1] (setting [5]) amounted to 20%. For the same compound, the viability at 0.01 µM in series [1] (setting [6]) amounted to 86%. Also, the responders at 1 mg/kg in series [2] (ip) turned out to be 20%. This compound also showed a CC50 at 24 h in “in vitro” of 250 nM.
As to `NCCCCN` [Putrescine, putrescine, reference compound], the “PERCENT PROTECTION” value in series [1] (setting [9]) is recorded as 0%. The responders at 10 mg/kg in series [2] (10.0 mg/kg ip, 3 daily injections, 14 days post-ischemia, fraction of hippocampi protected) is 41%. Also, half-maximal cytotoxicity in the series “in vitro” (CC50 at 24 h) was put at 300000 nM. Moreover, the “protecting against ischemia induced nerve cell death” value (“protecting” for short) in series [3] was “activity”.
With `N=C(N)NCCCC(N)C(=O)NCCCNCCCN` (stereo not drawn) [SFTX-33], the “voltage-sensitive calcium channel blocking” value in series [4] is given as “voltage-sensitive calcium channel blockers”. Also, in the series with NMDA receptor, the “EAA antagonism / PCP site of NMDA receptor” value is recorded as “EAA antagonists capable of binding at the PCP site on the NMDA receptor”.
As to `NCCCCNCCCN` [Spermidine, spermidine, reference compound], the viability at 0.01 µM in series [1] (Rattus norvegicus, positive control, 0.01 micromoles + NMDA (1 mM, 3 hours), 24 hours, read-out: SURVIVING CELL IN CULTURE (relative to control, 100%)) was 78%. In series [1] (setting [9]), the “PERCENT PROTECTION” value is reported as 48%. Moreover, in series [2] (setting [8]), the responders at 10 mg/kg was found to be 42%. In “in vitro”, this compound gave a half-maximal cytotoxic concentration (CC50) at 24 h of 2000 nM. The “protecting” value in series [3] was “activity”.
For `NCCCNCCCCNCCCN` [Spermine, spermine, reference compound], the “PERCENT PROTECTION” value in series [1] (setting [9]) is listed as 38%. Also, the responders at 10 mg/kg in series [2] (ip) was 60%. In “in vitro”, this compound returned a CC50 at 24 h of 2000 nM. Moreover, the “protecting” value in series [3] is given as “activity”.
